Experiments:
[1] = biological target: Beta-2 adrenergic receptor (Homo sapiens, UniProt P07550); assay type: functional, cell-based
[2] = biological target: T1, Androgen receptor (Rattus norvegicus, UniProt P15207); assay type: functional
T1 sequence (P15207 whole entry): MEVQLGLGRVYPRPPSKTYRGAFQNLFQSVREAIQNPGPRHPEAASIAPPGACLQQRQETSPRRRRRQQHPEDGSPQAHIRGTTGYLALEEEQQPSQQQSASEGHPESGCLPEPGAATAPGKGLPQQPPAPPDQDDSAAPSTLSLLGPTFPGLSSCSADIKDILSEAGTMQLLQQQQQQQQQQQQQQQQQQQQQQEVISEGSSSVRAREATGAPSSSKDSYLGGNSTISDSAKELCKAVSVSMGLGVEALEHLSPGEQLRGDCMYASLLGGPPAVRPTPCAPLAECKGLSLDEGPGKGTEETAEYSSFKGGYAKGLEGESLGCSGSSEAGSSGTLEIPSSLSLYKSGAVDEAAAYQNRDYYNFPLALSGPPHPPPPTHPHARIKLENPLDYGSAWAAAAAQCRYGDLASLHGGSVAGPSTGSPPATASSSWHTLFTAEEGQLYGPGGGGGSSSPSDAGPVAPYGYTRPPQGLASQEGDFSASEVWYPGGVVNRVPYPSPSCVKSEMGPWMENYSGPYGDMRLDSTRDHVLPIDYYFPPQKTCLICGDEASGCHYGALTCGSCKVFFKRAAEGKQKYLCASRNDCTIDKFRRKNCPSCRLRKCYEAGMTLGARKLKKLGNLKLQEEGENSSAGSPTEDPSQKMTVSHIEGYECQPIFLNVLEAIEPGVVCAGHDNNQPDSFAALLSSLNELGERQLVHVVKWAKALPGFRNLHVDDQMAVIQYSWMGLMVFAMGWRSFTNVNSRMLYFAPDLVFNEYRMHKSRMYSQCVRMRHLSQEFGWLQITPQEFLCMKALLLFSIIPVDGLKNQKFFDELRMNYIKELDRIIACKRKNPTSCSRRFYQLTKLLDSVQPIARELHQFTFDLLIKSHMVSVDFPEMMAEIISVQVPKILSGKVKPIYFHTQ

[3] = biological target: T1, Androgen receptor; assay type: functional; remark: listed apart in the source
[4] = biological target: Neurotensin receptor type 1 (Homo sapiens, UniProt P30989)
[5] = biological target: T2, Progesterone receptor (Homo sapiens, UniProt P06401)
T2 sequence (P06401 whole entry): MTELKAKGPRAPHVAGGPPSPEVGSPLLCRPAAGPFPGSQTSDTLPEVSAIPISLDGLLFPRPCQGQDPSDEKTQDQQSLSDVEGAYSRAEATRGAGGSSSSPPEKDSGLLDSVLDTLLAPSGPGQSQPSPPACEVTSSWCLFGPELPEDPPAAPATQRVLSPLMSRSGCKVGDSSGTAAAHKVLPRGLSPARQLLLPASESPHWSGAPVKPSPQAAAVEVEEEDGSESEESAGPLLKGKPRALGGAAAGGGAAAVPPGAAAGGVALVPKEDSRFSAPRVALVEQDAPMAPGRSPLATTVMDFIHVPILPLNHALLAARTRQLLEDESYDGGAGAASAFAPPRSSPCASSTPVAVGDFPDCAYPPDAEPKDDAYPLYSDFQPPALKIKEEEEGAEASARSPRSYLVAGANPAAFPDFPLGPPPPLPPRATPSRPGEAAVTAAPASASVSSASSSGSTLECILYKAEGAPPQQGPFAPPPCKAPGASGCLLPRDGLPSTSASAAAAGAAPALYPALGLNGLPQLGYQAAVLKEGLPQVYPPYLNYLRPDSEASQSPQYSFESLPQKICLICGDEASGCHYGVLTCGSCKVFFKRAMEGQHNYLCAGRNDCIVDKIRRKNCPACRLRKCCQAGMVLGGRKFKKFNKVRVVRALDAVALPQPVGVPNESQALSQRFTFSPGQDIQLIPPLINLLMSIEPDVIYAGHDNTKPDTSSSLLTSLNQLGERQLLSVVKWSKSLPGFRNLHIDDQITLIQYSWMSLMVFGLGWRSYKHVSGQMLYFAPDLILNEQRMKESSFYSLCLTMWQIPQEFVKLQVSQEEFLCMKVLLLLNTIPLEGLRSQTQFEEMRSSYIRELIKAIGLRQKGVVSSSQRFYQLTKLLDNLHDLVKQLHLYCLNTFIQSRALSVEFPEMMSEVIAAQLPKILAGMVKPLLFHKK

[6] = biological target: T3, Alpha-2A adrenergic receptor (Homo sapiens, UniProt P08913)
T3 sequence (P08913 whole entry): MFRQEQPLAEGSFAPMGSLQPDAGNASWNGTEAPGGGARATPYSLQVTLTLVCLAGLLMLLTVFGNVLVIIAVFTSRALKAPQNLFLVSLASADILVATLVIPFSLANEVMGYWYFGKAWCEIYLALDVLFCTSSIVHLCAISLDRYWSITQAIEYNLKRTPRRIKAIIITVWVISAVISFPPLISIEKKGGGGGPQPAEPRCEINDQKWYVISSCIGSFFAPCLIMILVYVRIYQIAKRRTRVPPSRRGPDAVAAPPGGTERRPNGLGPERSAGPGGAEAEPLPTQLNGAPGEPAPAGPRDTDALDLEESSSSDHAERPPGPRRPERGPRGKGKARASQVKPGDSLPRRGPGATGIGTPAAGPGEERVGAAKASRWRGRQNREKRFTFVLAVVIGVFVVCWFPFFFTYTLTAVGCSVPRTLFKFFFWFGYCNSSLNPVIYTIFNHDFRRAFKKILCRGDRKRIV

[7] = biological target: T4, 5-hydroxytryptamine receptor 1A (Homo sapiens, UniProt P08908)
T4 sequence (P08908 whole entry): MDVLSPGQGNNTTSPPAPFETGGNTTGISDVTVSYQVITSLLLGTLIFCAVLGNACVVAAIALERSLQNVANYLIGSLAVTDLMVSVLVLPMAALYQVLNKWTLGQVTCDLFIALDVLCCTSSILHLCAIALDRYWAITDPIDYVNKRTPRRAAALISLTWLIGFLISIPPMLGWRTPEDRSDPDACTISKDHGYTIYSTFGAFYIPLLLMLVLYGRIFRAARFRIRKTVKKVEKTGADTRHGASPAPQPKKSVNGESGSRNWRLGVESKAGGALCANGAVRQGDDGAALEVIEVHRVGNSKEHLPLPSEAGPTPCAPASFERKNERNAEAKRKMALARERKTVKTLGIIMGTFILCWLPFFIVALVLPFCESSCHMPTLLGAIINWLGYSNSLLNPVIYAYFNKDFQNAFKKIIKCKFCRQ

[8] = biological target: D(1A) dopamine receptor (Homo sapiens, UniProt P21728)
[9] = biological target: 5-hydroxytryptamine receptor 2A (Homo sapiens, UniProt P28223)
Further: assay procedure not described here.

Chain of 5-hydroxytryptamine receptor 2A (P28223 whole entry): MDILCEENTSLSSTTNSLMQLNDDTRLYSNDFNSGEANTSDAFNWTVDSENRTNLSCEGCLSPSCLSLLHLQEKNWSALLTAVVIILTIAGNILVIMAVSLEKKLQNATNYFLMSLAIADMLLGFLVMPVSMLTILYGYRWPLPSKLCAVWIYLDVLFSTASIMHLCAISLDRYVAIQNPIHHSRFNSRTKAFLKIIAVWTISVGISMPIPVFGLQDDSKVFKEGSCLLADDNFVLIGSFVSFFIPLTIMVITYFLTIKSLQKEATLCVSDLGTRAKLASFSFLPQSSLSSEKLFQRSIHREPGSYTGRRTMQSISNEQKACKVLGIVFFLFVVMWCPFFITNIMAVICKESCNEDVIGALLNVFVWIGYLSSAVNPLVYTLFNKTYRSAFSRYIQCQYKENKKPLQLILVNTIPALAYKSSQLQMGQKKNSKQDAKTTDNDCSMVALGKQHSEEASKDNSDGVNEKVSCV
Chain of Beta-2 adrenergic receptor (P07550 whole entry): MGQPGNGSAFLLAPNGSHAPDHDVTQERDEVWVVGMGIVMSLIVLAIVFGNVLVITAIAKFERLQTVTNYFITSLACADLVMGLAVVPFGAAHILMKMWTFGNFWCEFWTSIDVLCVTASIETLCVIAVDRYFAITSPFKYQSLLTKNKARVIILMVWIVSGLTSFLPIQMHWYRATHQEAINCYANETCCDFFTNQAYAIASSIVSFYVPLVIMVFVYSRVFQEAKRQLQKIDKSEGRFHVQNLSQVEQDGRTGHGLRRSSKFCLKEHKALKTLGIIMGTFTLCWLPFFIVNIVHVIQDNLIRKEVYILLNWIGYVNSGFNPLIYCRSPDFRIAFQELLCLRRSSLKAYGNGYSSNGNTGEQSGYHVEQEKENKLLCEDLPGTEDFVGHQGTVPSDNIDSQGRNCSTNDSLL
Chain of D(1A) dopamine receptor (P21728 whole entry): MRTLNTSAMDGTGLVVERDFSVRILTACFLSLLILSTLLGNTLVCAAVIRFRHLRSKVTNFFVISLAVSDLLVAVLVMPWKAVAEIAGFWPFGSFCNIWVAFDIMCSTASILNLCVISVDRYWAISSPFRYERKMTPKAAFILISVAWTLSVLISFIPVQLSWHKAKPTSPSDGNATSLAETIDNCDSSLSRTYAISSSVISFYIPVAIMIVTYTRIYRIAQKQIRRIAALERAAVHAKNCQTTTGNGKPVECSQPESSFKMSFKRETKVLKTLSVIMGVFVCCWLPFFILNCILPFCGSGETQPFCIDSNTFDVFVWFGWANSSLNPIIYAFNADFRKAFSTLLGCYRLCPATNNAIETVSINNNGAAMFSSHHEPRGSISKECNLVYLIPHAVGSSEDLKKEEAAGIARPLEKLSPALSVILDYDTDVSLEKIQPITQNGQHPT
Chain of Neurotensin receptor type 1 (P30989 whole entry): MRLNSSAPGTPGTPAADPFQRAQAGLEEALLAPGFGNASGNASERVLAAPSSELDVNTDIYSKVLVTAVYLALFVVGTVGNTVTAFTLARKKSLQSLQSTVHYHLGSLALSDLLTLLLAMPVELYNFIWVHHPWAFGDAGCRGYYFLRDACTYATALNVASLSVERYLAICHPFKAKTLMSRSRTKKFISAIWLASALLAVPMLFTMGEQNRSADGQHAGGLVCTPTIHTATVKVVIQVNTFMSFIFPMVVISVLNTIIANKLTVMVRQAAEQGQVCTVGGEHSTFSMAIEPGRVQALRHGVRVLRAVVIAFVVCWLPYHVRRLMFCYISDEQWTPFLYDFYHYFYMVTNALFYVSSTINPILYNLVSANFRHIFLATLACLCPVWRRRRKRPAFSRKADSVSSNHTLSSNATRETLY

## CCC(C(=O)O)c1ccc(N2Cc3ccccc3C2=O)cc1 (centres undefined) [INDOBUFEN]
[1]
  AC50: > 30 µM
[2]
  AC50: > 30 µM
[3]
  AC50: > 30 µM

## Cc1ccc(-n2nccn2)c(C(=O)N2CCN(c3nc4cc(Cl)ccc4o3)CC[C@H]2C)c1 [SUVOREXANT]
[2]
  AC50: > 30 µM
[3]
  AC50: > 30 µM

## Cc1cc(O)c(C(=O)N[C@@H](C(=O)N[C@@H]2C(=O)N3C(C(=O)O)=C(CSc4nnnn4C)CS[C@H]23)c2ccc(O)cc2)cn1 [CEFPIRAMIDE]
[2]
  AC50: > 30 µM
[3]
  AC50: > 30 µM

## Cn1c(=O)c2c(ncn2CC2OCCO2)n(C)c1=O [DOXOFYLLINE]
[1]
  AC50: > 30 µM
[2]
  AC50: > 30 µM
[3]
  AC50: > 30 µM

## COc1ccc2c3c1O[C@H]1C(=O)CC[C@@]4(O)[C@@H](C2)N(C)CC[C@]314 [OXYCODONE]
[2]
  AC50: > 30 µM
[3]
  AC50: > 30 µM

## Clc1ccc(CCCOCCCN2CCCCC2)cc1 [PITOLISANT]
[1]
  AC50: > 30 µM
[2]
  AC50: > 30 µM
[3]
  AC50: > 30 µM

## CCCCc1ncc(/C=C(\Cc2cccs2)C(=O)O)n1Cc1ccc(C(=O)O)cc1 [EPROSARTAN]
[1]
  AC50: > 30 µM
[4]
  AC50: > 30 µM
[5]
  AC50: > 30 µM
[6]
  AC50: > 10 µM
[7]
  AC50: > 10 µM
[8]
  AC50: > 10 µM
[9]
  AC50: > 10 µM

## COc1ccccc1OCCNCC(O)c1ccc(C)c(S(N)(=O)=O)c1 (centres undefined) [AMOSULALOL]
[2]
  AC50: > 30 µM
[3]
  AC50: > 30 µM
[7]
  AC50: 0.052 µM

## CCc1c(Cl)c(O)c(Cl)c(O)c1C(=O)O[C@H]1[C@H](O)[C@H](OC)[C@H](OC/C2=C\C=C\C[C@H](O)/C(C)=C/[C@H](CC)[C@@H](O[C@@H]3OC(C)(C)[C@@H](OC(=O)C(C)C)[C@H](O)[C@@H]3O)/C(C)=C/C(C)=C/C[C@@H]([C@@H](C)O)OC2=O)O[C@@H]1C [FIDAXOMICIN]
[2]
  AC50: > 30 µM
[4]
  AC50: > 30 µM
[5]
  AC50: 11.3 µM
[6]
  AC50: > 10 µM
[7]
  AC50: > 10 µM
[8]
  AC50: > 10 µM
[9]
  AC50: > 10 µM

## CN1C(=O)C(O)N=C(c2ccccc2Cl)c2cc(Cl)ccc21 (centres undefined) [LORMETAZEPAM]
[2]
  AC50: > 30 µM
[3]
  AC50: > 30 µM

## CCN(CC)C(=O)N[C@H]1C[C@@H]2c3cccc4[nH]cc(c34)C[C@H]2N(C)C1 [TERGURIDE]
[1]
  AC50: > 30 µM
[2]
  AC50: > 30 µM
[3]
  AC50: > 30 µM
[8]
  AC50: 0.41 µM

## CC(=O)O[C@H]1CC[C@@]2(C)C(=CC[C@@H]3[C@@H]2CC[C@]2(C)C(c4cccnc4)=CC[C@@H]32)C1 [ABIRATERONE ACETATE]
[1]
  AC50: > 30 µM
[2]
  AC50: > 30 µM
[3]
  AC50: > 30 µM
[5]
  AC50: 3.1 µM
[7]
  AC50: > 10 µM
[9]
  AC50: > 10 µM

## CC(C)=CCC/C(C)=C/C=C/C(C)=C/C=C/C(C)=C/C=C/C=C(C)/C=C/C=C(C)/C=C/C=C(\C)CCC=C(C)C [LYCOPENE]
[2]
  AC50: > 30 µM
[3]
  AC50: 24 µM

## CC(C)OC(=O)CCC/C=C\C[C@@H]1[C@@H](CC[C@@H](O)CCc2ccccc2)[C@H](O)C[C@@H]1O [LATANOPROST]
[1]
  AC50: > 30 µM
[2]
  AC50: > 30 µM
[3]
  AC50: > 30 µM

## CN1C(=O)C(O)N=C(c2ccccc2)c2cc(Cl)ccc21 (centres undefined) [TEMAZEPAM]
[1]
  AC50: > 30 µM
[4]
  AC50: > 30 µM
[5]
  AC50: > 30 µM
[6]
  AC50: > 10 µM
[7]
  AC50: > 10 µM
[8]
  AC50: > 10 µM
[9]
  AC50: > 10 µM

## CC(Oc1c(Cl)cccc1Cl)C1=NCCN1 (centres undefined) [LOFEXIDINE]
[2]
  AC50: > 30 µM
[3]
  AC50: > 30 µM
[7]
  AC50: 0.29 µM

— ChEMBL document CHEMBL5291721, “A preclinical secondary pharmacology resource illuminates target-adverse drug reaction associations of marketed drugs” (Nat Commun, 2023)
